# In US5300629A, “Bactericidal and/or bacteriostatic peptides isolated from hemolymph of honeybees” (Plant Genetic Systems, N.V., priority 1987, dated 1994):
# Where a SMILES comes first, the peptide text is derived from it.
# How the values were obtained:
# Type in all cases: cell-based
# [1] = system: Salmonella typhimurium ATCC 23565; test: Inhibition zone assay; parameters: key: --: "-" means that no inhibition has been found
# [2] = system: Xanthomonas campestris pv. campestris A 902; test: Inhibition zone assay; parameters: key: --: "-" means that no inhibition has been found; conditions: * synthetic ApidIa and heattreated immune lymph instead of Bee6 and native immune lymph
# Clostridia = system: Clostridia
# Klebsiella oxytoca KO2 = test: Inhibition zone assay; parameters: key: --: "-" means that no inhibition has been found
# [3] = system: Bacillus thuringiensis DSM 3131; test: Inhibition zone assay; parameters: key: --: "-" means that no inhibition has been found; conditions: I and B 10 ul, L 5 ug
# [4] = system: Enterobacter agglomerans Gilardi 1081; test: Inhibition zone assay; parameters: key: --: "-" means that no inhibition has been found; conditions: I and B 10 ul, L 5 ug
# [5] = system: Lactobacillus acidophilus ATCC 4336; test: Inhibition zone assay; parameters: key: --: "-" means that no inhibition has been found; conditions: I 10 ul
# [6] = system: Xanthomonas maltophilia JCM1977; test: Inhibition zone assay; parameters: key: --: "-" means that no inhibition has been found; conditions: Xanthomonas maltophilia JCM1977 (Tables 2 and 3)
# [7] = system: Salmonella enteritidis 83/34; test: Inhibition zone assay; parameters: key: --: "-" means that no inhibition has been found; conditions: I and B 10 ul
# [8] = system: Salmonella typhimurium NCTC 74; test: Inhibition zone assay; parameters: key: --: "-" means that no inhibition has been found; conditions: I and B 10 ul
# [9] = system: Agrobacterium radiobacter ATCC 19358; test: Inhibition zone assay; parameters: key: --: "-" means that no inhibition has been found; conditions: I and B 10 ul, L 5 ug
# [10] = system: Serratia plymuthica ATCC 183; test: Inhibition zone assay; parameters: key: --: "-" means that no inhibition has been found; conditions: I and B 10 ul, L 5 ug
# [11] = system: Pseudomonas paucimobilis ATCC 29837; test: Inhibition zone assay; conditions: L 5 ug
# [12] = system: Xanthomonas campestris pv. graminis NCPPB 2700; test: Inhibition zone assay; parameters: key: --: "-" means that no inhibition has been found; conditions: I and B 10 ul, L 5 ug
# [13] = system: Escherichia coli NCTC 11601; test: Inhibition zone assay; parameters: key: --: "-" means that no inhibition has been found; conditions: I 10 ul
# [14] = system: Alcalienes denitrificans ATCC 15173; test: Inhibition zone assay; parameters: key: --: "-" means that no inhibition has been found
# [15] = system: Pseudomonas aeruginosa ATCC 7700; test: Inhibition zone assay; parameters: key: --: "-" means that no inhibition has been found
# [16] = system: Corynebacterium insidiosum NCPPB 1109; test: Inhibition zone assay; conditions: I and B 10 ul, L 5 ug
# Description: Whole lymph or purified components, resuspended in PBS to a final volume equal to the starting material (heated lymph), was applied in 3 mm wells on agar plates seeded with the test organisms. Antibacterial activity was determined by measuring the growth-inhibition zones (in mm).
structure (smiles),measurement,setting,value
CC[C@H](C)[C@H](NC(=O)[C@H](CCCCN)NC(=O)[C@@H]1CCCN1C(=O)[C@H](CC(N)=O)NC(=O)[C@H](Cc1ccccc1)NC(=O)[C@@H]1CCCN1C(=O)CNC(=O)[C@H](CCC(N)=O)NC(=O)CNC(=O)[C@@H]1CCCN1C(=O)[C@H](Cc1ccccc1)NC(=O)[C@@H](NC(=O)[C@@H]1CCCN1C(=O)[C@H](Cc1ccccc1)NC(=O)[C@@H]1CCCN1C(=O)[C@H](CCCNC(=N)N)NC(=O)[C@H](CCCNC(=N)N)NC(=O)CNC(=O)[C@@H]1CCCN1C(=O)[C@H](CCC(N)=O)NC(=O)[C@@H]1CCCN1C(=O)[C@@H](NC(=O)[C@H](CC(N)=O)NC(=O)[C@@H]1CCCN1C(=O)[C@H](CC(C)C)NC(=O)[C@@H]1CCCN1C(=O)[C@@H](NC(=O)[C@@H](N)Cc1ccc(O)cc1)C(C)C)C(C)C)[C@@H](C)O)C(=O)N[C@@H](CCCCN)C(=O)N[C@@H](Cc1c[nH]c2ccccc12)C(=O)N1CCC[C@H]1C(=O)N[C@@H](CCC(N)=O)C(=O)NCC(=O)N[C@@H](Cc1ccc(O)cc1)C(=O)O [bee 9] (H-YVPLPNVPQPGRRPFPTFPGQGPFNPKIKWPQGY-OH),diameter of growth-inhibition zone,[1],--
same,diameter of growth-inhibition zone,[2],--
same,"susceptibility, in words",Clostridia,resistant
same,diameter of growth-inhibition zone,Klebsiella oxytoca KO2,--
same,diameter of growth-inhibition zone,[3],--
same,diameter of growth-inhibition zone,[4],--
same,diameter of growth-inhibition zone,[5],--
same,diameter of growth-inhibition zone,[6],--
same,diameter of growth-inhibition zone,[7],--
same,diameter of growth-inhibition zone,[8],--
same,diameter of growth-inhibition zone,[9],--
same,diameter of growth-inhibition zone,[10],--
same,diameter of growth-inhibition zone,[11],4 mm
same,diameter of growth-inhibition zone,[12],--
same,diameter of growth-inhibition zone,[13],--
same,diameter of growth-inhibition zone,[14],--
same,diameter of growth-inhibition zone,[15],--
same,diameter of growth-inhibition zone,[16],7 mm
